Assay results reported in article PMC7515829, “HKDC1 C-terminal based peptides inhibit extranodal natural killer/T-cell lymphoma by modulation of mitochondrial function and EBV suppression” (Leukemia, 2020).
Ends that are not written are not given here.

Key:
SNK6 cells [1] = details: read-out: IC50 (µM) SNK6, half-maximal cell death activity; SNK6 cells; peptides 0.1–15 µM, 6 h; PI staining, FACS; mean ± SEM, n in cell (Table 1)
From the text: (§1) We investigated the potential role of HKDC1-based peptides in ENKTL cells that were isolated from the MNCs of ENKTL patients or SNK6 cell line. Three different kinds of HKDC1-based targeting peptides, including the last 15 aa at either the N-terminal (HKN15) or C-terminal (HKC15), or the last eight aa at the C-terminal (HKC8) were selected; four different kinds of cell-penetrating sequences were employed to deliver the HKDC1-based peptides, including Antp (a 16 penetrating residue long sequence from the Drosophila antennapedia-homeodomain), penetration-accelerating segment, TAT (HIV-1 TAT sequence), and Tf (the Tf receptor (TfR) internalization sequence) sequences. All of the aa with the D-configuration (marked as D) were synthesized as retro-inverso peptides. […] We then evaluated the toxic effect of two peptides (including Tf-D-HKC15 and Tf-D-HKC8) on different kinds of primary and cancer cell lines (see details in Table 2). […] We also evaluated the peptide delivery efficiency using ^125I-labeled uptake assay for both Tf-D-HKC8 and Tf-D-HKC15 peptides.
(§2) Measurement of apoptosis and cell death. Apoptosis was evaluated by TUNEL assay using the In Situ Cell Death Detection Kit™ (Roche). Cells were fixed in 4% paraformaldehyde and labeled with TUNEL reagents. Stained cells were photographed by a fluorescence microscope (11). For cell death analysis, the propidium iodide (PI) staining was performed by addition of 6.25 µg/ml of PI to the cells, and cell death was immediately evaluated by FACS analysis (3).

MNCs from ENKTL patients = details: read-out: IC50 (µM) ENKTL, half-maximal cell death activity, peptides 0.1–15 µM, 6 h, PI staining, FACS, mean ± SEM, n in cell
From the text: as §1, §2

HKDC1/VDAC1 = HKDC1/VDAC1 (Homo sapiens, UniProt P21796); assay: IP/WB association of HKDC1 with VDAC1 in SNK6 cells; type: cell-based; design: endogenous in cells; host or cells: SNK6; details: 0.5 µM peptide, 6 h, vs CTL, n = 5 (Fig. 4c, d)
Description: Immunoprecipitation (IP) and Western Blotting (WB). Cell lysates were pre-cleared by pre-immune IgG plus Protein A agarose beads for 2 hours, and the supernatants were immunoprecipitated by the indicated antibodies and a 50% slurry of Protein A Agarose beads overnight at 4 °C (9). After washing with buffer containing 50 mM Tris, pH 7.5, 150 mM NaCl, 1% NP-40, and 0.5% deoxycholate with protease inhibitors, proteins were released, separated on 10% SDS-PAGE gels, blotted by primary antibodies, and then simultaneously incubated with the differentially labeled species-specific secondary antibodies, anti-RABBIT IRDye™ 800CW (green) and anti-MOUSE (or goat) ALEXA680 (red). Membranes were scanned and quantitated by the ODYSSEY Infrared Imaging System (LI-COR, NE) (10).

SNK6 cells [2] = assay: Apoptosis rate by TUNEL assay; type: cell-based, human; details: 0.5 µM peptide, 6 h, compared with CTL group, n = 5 (Fig. 4h)
Description: as §2

SNK6 cells [3] = assay: γH2AX formation (western blot); type: cell-based, human; details: 0.5 µM peptide, 6 h, vs CTL, n = 5 (Fig. 3d)
Description: (§3) Measurement of DNA breaks. 8-OHdG formation was measured using an OxiSelect™ Oxidative DNA Damage ELISA Kit (Cat No. STA320, from Cell Biolabs Inc.) per manufacturers’ instructions. The formation of γH2AX was measured from nuclear extracts by western blotting using H2AX as the input control (8).

SNK6 xenograft [4] = assay: SNK6 xenograft tumor volume; type: in vivo, mouse; details: nude mice, n = 5
Description: To measure malignant SNK6 xenograft growth, 100 µl of 1 × 10^5 SNK6 cells in PBS were mixed with 100 µl growth factor-reduced basement membrane matrix (Matrigel™, BD Biosciences) resulting in 200 µl of solution that was injected subcutaneously along the mouse flank at each intended tumor site. Tumor size was measured using a digital caliper and volume was calculated, and mice were randomly divided into four groups (n = 9 per group) when the tumor volume reached 50–100 mm^3 on day ~18 after tumor inoculation and given treatment as follows: Group 1 (control (CTL)) was intratumorally injected with HBSS buffer (5.33 mM KCl, 0.44 mM KH2PO4, 138 mM NaCl, 4 mM NaHCO3, 0.3 mM Na2HPO4, and 5.6 mM glucose, pH 7.3) containing 0.05% DMSO; Group 2 (Tf-D-HKN15) received HBSS buffer containing 0.05% DMSO with 50 µM Tf-D-HKN15 peptides; Group 3 (Tf-D-HKC15) received HBSS buffer containing 0.05% DMSO with 50 µM Tf-D-HKC15 peptides; Group 4 (Tf-D-HKC8) received HBSS buffer containing 0.05% DMSO with 50 µM Tf-D-HKC8 peptides. The xenografts were injected (two points, 20 µl per tumor) every 2 days. Beginning on the day of inoculation, mouse weight and tumor volume were monitored every 2 days. Mice were monitored for changes in body weight and sacrificed when values fell below 20% of their initial weight; the survival curve was calculated and the final tumor tissues were isolated for biomedical analysis.
To measure the malignant SNK6 xenograft growth, the 100µl of 1x10^5 SNK6 cells in PBS were mixed with 100µl growth factor-reduced basement membrane matrix (Matrigel™, BD Biosciences) resulting in 200µl of solution that was injected subcutaneously along the mouse flank at each intended tumor site. Tumor size was measured using a digital caliper and volume was calculated, and mice were randomly divided into 4 groups (n=9 per group) when the tumor volume reached 50-100 mm^3 on day ~18 after tumor inoculation: Group 1 (CTL) was intratumorally injected with HBSS buffer (5.33 mM KCl, 0.44 mM KH2PO4, 138 mM NaCl, 4 mM NaHCO3, 0.3 mM Na2HPO4, and 5.6 mM glucose, pH 7.3) containing 0.05% DMSO; Group 2 (Tf-D-HKN15) received HBSS buffer containing 0.05% DMSO with 50 µM Tf-D-HKN15 peptides; Group 3 (Tf-D-HKC15) received HBSS buffer containing 0.05% DMSO with 50 µM Tf-D-HKC15 peptides; Group 4 (Tf-D-HKC8) received HBSS buffer containing 0.05% DMSO with 50 µM Tf-D-HKC8 peptides. The xenografts were injected (two points, 20 µL per tumor) every two days. Beginning on the day of inoculation, mouse weight and tumor volume were monitored every 2 days. Mice were monitored for changes in body weight and sacrificed when values fell below 20% of their initial weight, the survival curve was calculated and the final tumor tissues were isolated for biomedical analysis.

SNK6 cells [5] = details: 0.5 µM peptide, 6 h, vs CTL, n = 3 (Fig. 5g)
Description: Immunostaining. […] The cells were then washed three times and the FITC labeled anti-mouse secondary antibody (1:100) was added for blotting for another 1 hour. After thorough washing, the slides were visualized and photographed, the nuclei of cells were stained with 4’,6-diamidino-2-phenylindole dihydrochloride (DAPI, #D9542, from Sigma), and the positive Ki-67 cells were quantitated.

SNK6 cells [6] = assay: 8-OHdG formation (DNA damage ELISA); type: cell-based, human; details: 0.5 µM peptide, 6 h, vs CTL, n = 5 (Fig. 3c)
Description: as §3

SNK6 cells [7] = assay: Cell proliferation by thymidine incorporation; type: cell-based, human; details: 0.5 µM peptide, 6 h, vs CTL, n = 5 (Fig. 5a)
Description: DNA synthesis by [^3H]-thymidine incorporation. Cell proliferation was evaluated as the rate of DNA synthesis by [^3H]-methylthymidine incorporation (17). […] At the end of the treatment, cells were incubated with serum-free media containing ^3H-methylthymidine (0.5 µCi/well) for 2 hours and then washed twice with PBS. Cellular DNA was precipitated using 10% trichloroacetic acid and solubilized with 0.4M NaOH (0.5 ml/well). Incorporation of ^3H-methylthymidine into the DNA was measured in a scintillation counter and was determined as counts per minute (CPM) (8).

SNK6 cells [8] = assay: 3-nitrotyrosine formation (ELISA); type: cell-based, human; details: 0.5 µM peptide, 6 h, compared with CTL group, n = 5 (Fig. 3b)
Description: Antibodies for β-actin (sc-47778), EBV Ea-D (sc-58121), EBV ZEBRA (BZ1, sc-53904), Ki-67 (sc-101861) and VDAC1 (sc-390996) were obtained from Santa Cruz Biotechnology. Antibodies for HK2 (ab104836), H2AX (ab20669), γH2AX (ab2893) and P-gp (ab129450) were obtained from Abcam. The antibody for HKDC1 (NBP1-82108) was obtained from Novus Biologicals. 3-nitrotyrosine (3-NT) was measured by 3-Nitrotyrosine ELISA Kit (ab116691 from Abcam). Nuclear extracts were prepared using the NE-PER Nuclear and Cytoplasmic Extraction Reagents Kit (Pierce Biotechnology). Protein concentration was measured using the Coomassie Protein Assay Kit (Pierce Biotechnology) per manufacturers’ instructions.

SNK6 xenograft [9] = assay: Mouse survival, Kaplan–Meier analysis; type: in vivo; details: nude mice, intratumoral 50 µM peptide every 2 days from day ~18, compared with CTL group, n = 9
Description: Statistical analysis. The data was given as mean ± SEM; all of the experiments were performed at least in quadruplicate unless otherwise indicated. One-way ANOVA followed by the Bonferroni post hoc test was used to determine statistical significance of different groups. The mouse survival curve was determined through Kaplan-Meier survival analysis using SPSS 22 software, and a P value < 0.05 was considered significant (8).

EBV = EBV viral genomes/cell by qPCR in SNK6 cells; type: cell-based; details: 0.5 µM peptide, 6 h, vs CTL, n = 4 (Fig. 3i)
Description: Detection of EBV copy number. Genomic DNA was extracted from treated SNK-6 cells or SNK-6 tumor tissue in mice using a QIAamp DNA Mini Kit (Qiagen). The EBV DNA copy number was measured through qPCR using 50ng of total DNA with EBV BMRF1 primers (see Table 1), and the results were normalized using cellular β-actin (primers see Table 1) as an internal control (13, 14). The Namalwa cell line, which contains 2 EBV viral genome copies, was used as a standard to prepare calibration curves for both EBV BMRF1 and β-actin genes, and the EBV viral load was presented as the number of viral genomes per cell (15, 16).

SNK6 cells [10] = assay: ROS formation (CM-H2DCFDA); type: cell-based, human; details: 0.5 µM peptide, 6 h, compared with CTL group, n = 5 (Fig. 3a)
Description: Measurement of ROS generation. Treated cells were seeded in a 24-well plate and incubated with 10μM CM-H2DCFDA (Invitrogen) for 45 min at 37°C, and then the intracellular formation of reactive oxygen species (ROS) was measured at excitation/emission wavelengths of 485/530nm using a FLx800 microplate fluorescence reader (Bio-Tek). The data was normalized as arbitrary units (8, 11).

Sequence of HKDC1/VDAC1 (P21796 2-283 limits assumed): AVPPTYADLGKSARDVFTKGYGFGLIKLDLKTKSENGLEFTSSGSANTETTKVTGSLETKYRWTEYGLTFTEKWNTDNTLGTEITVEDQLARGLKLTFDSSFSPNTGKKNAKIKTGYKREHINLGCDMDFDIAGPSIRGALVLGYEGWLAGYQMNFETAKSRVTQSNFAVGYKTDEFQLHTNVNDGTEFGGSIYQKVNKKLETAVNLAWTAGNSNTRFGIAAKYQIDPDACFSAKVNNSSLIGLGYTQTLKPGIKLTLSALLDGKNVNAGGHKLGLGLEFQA

Row | Substance | IC50 (SNK6 cells [1]) [µM] | IC50 (MNCs from ENKTL patients) [µM] | further results
1 | GKPILFF-LQQAQKEN [PAS-D-HKC8] | 1.3 ± 0.3 | 1.1 ± 0.3 | –
2 | GKPILFFLQQAQKEN [PAS-HKC8] | 1.4 ± 0.3 | 1.4 ± 0.4 | –
3 | GYGRKKRRQRRRG-LQQAQKEN [TAT-D-HKC8] | 1.7 ± 0.5 | 1.5 ± 0.7 | –
4 | GYGRKKRRQRRRGLQQAQKEN [TAT-HKC8] | 2 ± 0.4 | 1.9 ± 0.4 | –
5 | HAIYPRH-EILNKEKK [Tf-D-Scram, reference compound] | > 15 | > 15 | –
6 | HAIYPRH-MFAVHLMAFYFSKLK [Tf-D-HKN15] | > 15 | > 15 | association of HKDC1 with VDAC1 (HKDC1/VDAC1): no effect; apoptosis rate increase (SNK6 cells [2]): no effect; γH2AX formation (SNK6 cells [3]): no effect; tumor volumes on day 36 (SNK6 xenograft [4]; intratumoral 50 µM peptide every 2 days from day ~18, day 36, vs CTL): no effect; tumor volumes on day 48 (SNK6 xenograft [4]; intratumoral 50 µM peptide every 2 days from day ~18, day 48, vs CTL): no effect; cell proliferation by quantitation of Ki-67 positive cells (SNK6 cells [5]): no effect; 8-OHdG formation (SNK6 cells [6]): no effect; thymidine incorporation (SNK6 cells [7]): no effect; 3-nitrotyrosine formation (SNK6 cells [8]): no effect; mouse survival (SNK6 xenograft [9]): little effect; EBV genome copies (EBV): no effect; ROS formation (SNK6 cells [10]): no effect
7 | HAIYPRHEILNKEKK [Tf-Scram, reference compound] | > 15 | > 15 | –
8 | HAIYPRHITAVAKRLQQAQKEN [Tf-HKC15] | 1.4 ± 0.3 | 1.2 ± 0.4 | –
9 | HAIYPRHLQQAQKEN [Tf-HKC8] | 0.7 ± 0.2 | 0.5 ± 0.2 | –
10 | HAIYPRHMFAVHLMAFYFSKLK [Tf-HKN15] | > 15 | > 15 | –
11 | RQIKIWFQNRRMKWKK-LQQAQKEN [Antp-D-HKC8] | 1.2 ± 0.4 | 1 ± 0.3 | –
12 | RQIKIWFQNRRMKWKKLQQAQKEN [Antp-HKC8] | 1.3 ± 0.3 | 1.3 ± 0.4 | –
